Assay results: ChEMBL document CHEMBL5030563, “Structure-Based Design of Dual-Acting Compounds Targeting Adenosine A2A Receptor and Histone Deacetylase as Novel Tumor Immunotherapeutic Agents” (J Med Chem, 2021)

Key:
[1] = system: MC-38; assay: Antitumour activity against mouse MC38 cells in C57BL/6 mouse assessed as tumour growth inhibition at 30 mg/kg, ip, bid measured after 9 days relative to control; assay type: functional; settings: MC-38, ip, 216 h, time 9 day, read-out: TGI
[2] = system: MC38; assay: Inhibition of HDAC in mouse MC38 cells assessed as increase in acetyl-histone H4 measured after 24 hrs by Western blot analysis; assay type: cell-based
[3] = system: MC38; assay: Inhibition of HDAC in mouse MC38 cells assessed as increase in acetyl-histone H3 measured after 24 hrs by Western blot analysis; assay type: cell-based
[4] = biological target: Histone deacetylase 9 (Homo sapiens, UniProt Q9UKV0); assay: Inhibition of HDAC9 (unknown origin) assessed as release of 7-amino-4-methylcoumarin incubated in room temperature for 15 min measured by Spectra max microtitre plate reader
[5] = biological target: Histone deacetylase 4 (Homo sapiens, UniProt P56524); assay: Inhibition of HDAC4 (unknown origin) assessed as release of 7-amino-4-methylcoumarin incubated in room temperature for 15 min measured by Spectra max microtitre plate reader
[6] = biological target: T1, Adenosine receptor A3 (Homo sapiens, UniProt P0DMS8); assay: Displacement of [3H]DPCPX from human adenosine A3 receptor membrane (unknown origin) measured after 60 mins by scintillation counting analysis; assay type: cell membranes
T1 sequence (P0DMS8 whole entry): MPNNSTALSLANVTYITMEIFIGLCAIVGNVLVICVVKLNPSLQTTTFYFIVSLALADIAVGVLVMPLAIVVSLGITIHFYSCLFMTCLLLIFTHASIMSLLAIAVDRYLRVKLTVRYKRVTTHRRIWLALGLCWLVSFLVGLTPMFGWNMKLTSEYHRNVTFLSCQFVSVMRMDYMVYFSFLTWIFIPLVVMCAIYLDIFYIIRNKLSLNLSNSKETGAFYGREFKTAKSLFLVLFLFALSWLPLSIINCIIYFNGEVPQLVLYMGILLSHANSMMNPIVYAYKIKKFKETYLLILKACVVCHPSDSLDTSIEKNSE

[7] = biological target: T2, Adenosine receptor A2b (Homo sapiens, UniProt P29275); assay: Displacement of [3H]DPCPX from human adenosine A2B receptor membrane (unknown origin) measured after 60 mins by scintillation counting analysis; assay type: cell membranes
T2 sequence (P29275 whole entry): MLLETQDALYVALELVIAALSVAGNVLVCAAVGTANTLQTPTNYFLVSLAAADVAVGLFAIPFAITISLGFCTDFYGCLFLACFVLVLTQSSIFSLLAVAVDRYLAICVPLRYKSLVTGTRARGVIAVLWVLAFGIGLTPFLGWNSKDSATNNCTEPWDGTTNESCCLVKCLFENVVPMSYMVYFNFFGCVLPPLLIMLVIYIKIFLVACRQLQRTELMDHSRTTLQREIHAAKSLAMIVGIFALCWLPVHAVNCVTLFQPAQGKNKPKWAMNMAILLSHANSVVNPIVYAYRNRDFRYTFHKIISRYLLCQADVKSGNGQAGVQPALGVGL

[8] = MRT in ICR mouse at 5 mg/kg, iv up to 24 hrs by LC-MS/MS analysis; assay type: ADME, organism-based; settings: in vivo
[9] = Half life in ICR mouse at 5 mg/kg, iv up to 24 hrs by LC-MS/MS analysis; assay type: ADME, organism-based; settings: in vivo
[10] = Bioavailability in ICR mouse at 20 mg/kg up to 24 hrs by LC-MS/MS analysis; assay type: ADME, organism-based; settings: in vivo
[11] = AUC (0 to infinity) in ICR mouse at 20 mg/kg, ip up to 24 hrs by LC-MS/MS analysis; assay type: ADME, organism-based; set-up: route intraperitoneal, dose 20 mg/kg, time <=24; settings: in vivo
[12] = AUC (0 to […]) in ICR mouse at 20 mg/kg, ip up to 24 hrs by LC-MS/MS analysis; assay type: ADME, organism-based; set-up: route intraperitoneal, dose 20 mg/kg, time <=24; settings: in vivo
[13] = Tmax in ICR mouse at 20 mg/kg, ip up to 24 hrs by LC-MS/MS analysis; assay type: ADME, organism-based; settings: in vivo
[14] = Elimination rate constant in ICR mouse at 20 mg/kg, ip up to 24 hrs by LC-MS/MS analysis; assay type: ADME, organism-based; settings: in vivo
[15] = MRT in ICR mouse at 20 mg/kg, po by LC-MS/MS analysis; assay type: ADME, organism-based; settings: in vivo
[16] = AUC (0 to infinity) in ICR mouse at 20 mg/kg, po by LC-MS/MS analysis; assay type: ADME, organism-based; set-up: time infinity, route oral, dose 20 mg/kg; settings: in vivo
[17] = AUC (0 to t) in ICR mouse at 20 mg/kg, po by LC-MS/MS analysis; assay type: ADME, organism-based; set-up: dose 20 mg/kg; settings: in vivo
[18] = Elimination rate constant in ICR mouse at 20 mg/kg, po up to 24 hrs by LC-MS/MS analysis; assay type: ADME, organism-based; settings: in vivo
[19] = system: CT26; assay: Antiproliferative activity against mouse CT26 cells measured after 72 hrs by CCK8 assay; assay type: functional; settings: Mus musculus, CT26
[20] = biological target: Adenosine receptor A2a (Homo sapiens, UniProt P29274); assay: Displacement of [3H]SCH58261 from adenosine A2A receptor membrane (unknown origin) measured after 60 mins by scintillation counting analysis; assay type: cell membranes
[21] = Toxicity in C57BL/6 mouse assessed as loss in body weight at 30 to 60 mg/kg, ip, bid measured after 9 days; assay type: organism-based; settings: in vivo, 216 h, dose 30-60 mg/kg, time 9 day

Chain of Histone deacetylase 9 (Q9UKV0 whole entry): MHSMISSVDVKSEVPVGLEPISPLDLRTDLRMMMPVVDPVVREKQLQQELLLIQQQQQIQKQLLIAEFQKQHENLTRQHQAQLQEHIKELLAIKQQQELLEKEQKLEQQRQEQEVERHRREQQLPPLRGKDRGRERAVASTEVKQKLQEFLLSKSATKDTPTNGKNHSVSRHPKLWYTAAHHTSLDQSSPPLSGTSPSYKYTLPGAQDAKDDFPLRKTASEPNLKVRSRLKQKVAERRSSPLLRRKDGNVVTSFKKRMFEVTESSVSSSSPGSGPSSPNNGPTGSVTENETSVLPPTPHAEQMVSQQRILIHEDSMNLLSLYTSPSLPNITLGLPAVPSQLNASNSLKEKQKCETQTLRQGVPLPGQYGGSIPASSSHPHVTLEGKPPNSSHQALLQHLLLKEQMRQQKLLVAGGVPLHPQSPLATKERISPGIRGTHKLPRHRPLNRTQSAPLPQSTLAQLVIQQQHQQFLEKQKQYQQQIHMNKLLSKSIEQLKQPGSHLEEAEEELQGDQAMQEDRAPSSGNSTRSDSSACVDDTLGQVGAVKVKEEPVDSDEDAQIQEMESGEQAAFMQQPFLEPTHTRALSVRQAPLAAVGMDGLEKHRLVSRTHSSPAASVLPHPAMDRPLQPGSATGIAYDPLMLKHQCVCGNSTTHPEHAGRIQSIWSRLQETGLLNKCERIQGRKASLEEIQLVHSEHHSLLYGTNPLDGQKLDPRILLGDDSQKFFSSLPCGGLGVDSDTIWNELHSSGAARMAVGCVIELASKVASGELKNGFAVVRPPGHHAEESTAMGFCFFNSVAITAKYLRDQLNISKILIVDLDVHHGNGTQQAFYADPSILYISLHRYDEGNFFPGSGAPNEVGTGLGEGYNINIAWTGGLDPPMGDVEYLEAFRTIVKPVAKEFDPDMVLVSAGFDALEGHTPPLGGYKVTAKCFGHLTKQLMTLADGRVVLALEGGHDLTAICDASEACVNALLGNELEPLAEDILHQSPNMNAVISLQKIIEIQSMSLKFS
Chain of Adenosine receptor A2a (P29274 whole entry): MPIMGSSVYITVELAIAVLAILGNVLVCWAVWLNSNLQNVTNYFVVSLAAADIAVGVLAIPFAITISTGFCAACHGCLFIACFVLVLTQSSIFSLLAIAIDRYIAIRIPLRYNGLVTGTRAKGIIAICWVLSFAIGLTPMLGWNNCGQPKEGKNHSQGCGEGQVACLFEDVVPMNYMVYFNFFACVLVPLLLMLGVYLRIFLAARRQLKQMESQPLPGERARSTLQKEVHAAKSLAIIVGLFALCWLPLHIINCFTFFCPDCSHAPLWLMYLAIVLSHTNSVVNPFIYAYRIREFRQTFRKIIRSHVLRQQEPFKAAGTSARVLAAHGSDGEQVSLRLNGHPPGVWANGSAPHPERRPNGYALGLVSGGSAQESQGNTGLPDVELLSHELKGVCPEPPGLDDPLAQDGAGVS
Chain of Histone deacetylase 4 (P56524 whole entry): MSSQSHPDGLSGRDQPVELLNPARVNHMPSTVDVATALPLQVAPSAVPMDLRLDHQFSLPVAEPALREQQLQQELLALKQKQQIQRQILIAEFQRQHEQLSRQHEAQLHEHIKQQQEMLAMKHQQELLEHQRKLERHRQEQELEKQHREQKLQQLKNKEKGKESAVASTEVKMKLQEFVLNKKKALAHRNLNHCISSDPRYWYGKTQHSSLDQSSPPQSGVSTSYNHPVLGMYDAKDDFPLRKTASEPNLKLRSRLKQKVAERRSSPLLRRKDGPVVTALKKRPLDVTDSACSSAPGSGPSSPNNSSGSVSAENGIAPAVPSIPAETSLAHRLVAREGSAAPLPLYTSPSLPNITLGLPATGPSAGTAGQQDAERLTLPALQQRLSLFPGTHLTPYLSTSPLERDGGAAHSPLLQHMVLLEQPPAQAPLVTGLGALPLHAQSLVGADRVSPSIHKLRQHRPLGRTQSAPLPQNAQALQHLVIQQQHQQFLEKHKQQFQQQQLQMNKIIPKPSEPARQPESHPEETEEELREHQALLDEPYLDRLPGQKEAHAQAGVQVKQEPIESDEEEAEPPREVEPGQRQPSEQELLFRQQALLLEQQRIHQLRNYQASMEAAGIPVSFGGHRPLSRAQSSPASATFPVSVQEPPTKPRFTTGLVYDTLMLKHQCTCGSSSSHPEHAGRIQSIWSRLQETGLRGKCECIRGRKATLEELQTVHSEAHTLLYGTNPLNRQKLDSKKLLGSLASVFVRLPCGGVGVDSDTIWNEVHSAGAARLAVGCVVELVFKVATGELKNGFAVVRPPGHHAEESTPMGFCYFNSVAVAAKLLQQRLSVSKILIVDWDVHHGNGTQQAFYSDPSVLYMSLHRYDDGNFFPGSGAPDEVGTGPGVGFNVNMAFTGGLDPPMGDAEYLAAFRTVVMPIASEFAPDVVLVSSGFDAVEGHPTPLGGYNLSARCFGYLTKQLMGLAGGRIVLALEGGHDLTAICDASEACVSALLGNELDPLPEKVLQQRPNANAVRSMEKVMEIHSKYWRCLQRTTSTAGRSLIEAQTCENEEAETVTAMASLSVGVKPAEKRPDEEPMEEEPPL

## Nc1ccccc1NC(=O)c1ccc(CCn2ncc3c2nc(N)n2nc(-c4ccco4)nc32)cc1
[1]
  inhibition in vivo at 30 mg/kg: 57.8%
[2]
  Activity: Dose-Dependent Effect
[3]
  Activity: Dose-Dependent Effect
[4]
  IC50: > 10 µM
[5]
  IC50: > 10 µM
[6]
  Ki: > 10 µM
[7]
  Ki: 0.35 µM
[8]
  MRT: 20 min
[9]
  half-life: 17.1 min
[10]
  bioavailability: 112%
[11]
  AUC(0-inf): 6630 ng·h/mL
[12]
  AUC(0-t): 6540 ng·h/mL
[13]
  Tmax: 25 min
[14]
  k el at 24 h: 0.000138 s⁻¹
[15]
  MRT: 84.6 min
[16]
  AUC(0-inf): 1810 ng·h/mL
[17]
  AUC(0-t): 1770 ng·h/mL
[18]
  k el at 24 h: 9.86e-05 s⁻¹
[19]
  GI50: 6.1 µM
[20]
  Ki: 0.0022 µM
[21]
  Activity: Toxic
